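The compound was tested at five concentrations on cells cultured in 96-well plates, with a 48-hour exposure period. GI50 is the concentration that inhibits growth by half. The concentration for full growth arrest is given as TGI.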
Legend:
Experiment in all cases: NCI tumour cell line growth inhibition, 48 h
[1] = tested on: RXF 393 renal
[2] = tested on: UO-31 renal
[3] = tested on: OVCAR-4 ovarian
[4] = tested on: PC-3 prostate
[5] = tested on: KM12 colon
[6] = tested on: SF-295 CNS
[7] = tested on: UACC-62 melanoma
[8] = tested on: HCT-116 colon
[9] = tested on: OVCAR-3 ovarian
[10] = tested on: MCF7 breast

SMILES | TGI [1] | TGI [2] | TGI [3] | TGI [4] | TGI [5] | TGI [6] | TGI [7] | TGI [8] | TGI [9] | TGI [10] | GI50 [1] | GI50 [2] | GI50 [3] | GI50 [4] | GI50 [5] | GI50 [6] | GI50 [7] | GI50 [8] | GI50 [9] | GI50 [10]
CC12CC(=O)C3C(C(=O)C1)C32C (stereo not given) | > 100 µM | > 100 µM | > 100 µM | > 100 µM | > 100 µM | > 100 µM | > 100 µM | > 100 µM | > 100 µM | > 100 µM |  |  |  |  |  |  |  |  |  | 
O=C(CNc1ccccc1Cl)Nn1c(-c2ccccc2)nc2ccccc2c1=O | 36.7 µM | > 100 µM | 93.4 µM | 99 µM | 87.1 µM | 91.1 µM | > 10 µM | > 100 µM | 48.3 µM | 31.4 µM |  |  |  |  |  |  |  |  |  | 
CC1CC[C@@]2(OC1)OC1C[C@H]3[C@@H]4CC[C@H]5CC(OC6OC(CO)C(OC7OC(CO)C(O)C(O)C7OC7OC(CO)C(O)C(O)C7O)C(O)C6O)CCC5(C)[C@H]4CCC3(C)C1[C@@H]2C (stereo not given in full) | 2.76 µM | 1.94 µM | 2.72 µM | 1.52 µM | 10.4 µM | 11 µM | 16.5 µM | 7.34 µM | 5.94 µM | 2.26 µM |  |  |  |  |  |  |  |  |  | 
CN(C)CCCN1C(=S)N(CCCN(C)C)c2c3cc(O)ccc3nc3c([N+](=O)[O-])ccc1c23 | 15.1 µM | 18.7 µM | 10.9 µM | 13.3 µM | 9.51 µM | 19 µM | 19.6 µM | 6.07 µM | 5.56 µM | 6.77 µM |  |  |  |  |  |  |  |  |  | 
O=P(c1ccccc1)(c1ccccc1)N1O[C@@H](c2ccccc2)C=C[C@H]1c1ccccc1 | 22.9 µM | 17.3 µM | 10.6 µM | 11.7 µM | 44.4 µM | 28.7 µM | 19.5 µM | 16.1 µM | 27.8 µM | 12.6 µM |  |  |  |  |  |  |  |  |  | 
COc1cc2c(cc1-c1c(C)noc1C)cc(C)c(=O)n2Cc1ccccn1 | 5 µM | > 100 µM | > 100 µM | > 100 µM | > 100 µM | > 100 µM | 15 µM | > 100 µM | 11.2 µM | > 100 µM | 0.498 µM | 0.376 µM | 1.33 µM | 3.47 µM | 7.77 µM | 2.3 µM | 0.407 µM | 1.91 µM | 1.8 µM | 0.333 µM
COc1cc(C2CC(C)(Nc3ccccc3)Oc3cc4c(cc32)OCO4)cc(OC)c1OC (stereo not given) | > 100 µM | 34.2 µM | > 78.5 µM | > 100 µM | > 37.5 µM | 3.57 µM | > 100 µM | > 51.2 µM | 3.52 µM | > 51.5 µM |  |  |  |  |  |  |  |  |  | 
O=c1cc(N=P(c2ccccc2)(c2ccccc2)c2ccccc2)n(-c2ccccc2)c(=O)n1-c1ccccc1 | 15.1 µM | 34.6 µM | 45.9 µM | 18.6 µM | > 100 µM | 85.8 µM | 39.6 µM | 42.5 µM | 32.3 µM | 34.3 µM |  |  |  |  |  |  |  |  |  | 
CCCNC(=O)CCC(C)[C@H]1CCC2C3C(C[C@H](OC(C)=O)[C@@]21C)[C@@]1(C)CCC2(C[C@H]1C[C@H]3OC(C)=O)OOC1(CCC(C)CC1)OO2 (stereo not given in full) | > 100 µM | 2.42 µM | 33.9 µM | > 100 µM | 20.2 µM | 52.5 µM | > 100 µM | > 100 µM | 18.5 µM | > 100 µM |  |  |  |  |  |  |  |  |  | 
O=C1C[C@H](Sc2ccccc2)C2(OCCO2)[C@@H](Sc2ccccc2)C1 | 4.25 µM | 3.49 µM | 28.4 µM | 13.8 µM | 7.36 µM | 17.9 µM | 4.63 µM | 4.81 µM | 7.94 µM | 6.01 µM |  |  |  |  |  |  |  |  |  | 
COC(=O)[C@]12CC[C@H]3CN(C(=O)OCc4ccccc4)[C@H]([C@H]31)[C@H](c1ccco1)N2S(=O)(=O)c1ccc(C)cc1 | 38.1 µM | 46.6 µM | > 100 µM | > 100 µM | 38.5 µM | 81.9 µM | 36.1 µM | 29.2 µM | 40.4 µM | 42 µM |  |  |  |  |  |  |  |  |  | 
COc1cc(NS(C)(=O)=O)ccc1N1Cc2cnc3ccc4[nH]c(C)cc1c4c23 | > 100 µM | > 100 µM | > 100 µM | > 100 µM | > 100 µM | > 100 µM | > 100 µM | > 100 µM | > 100 µM | > 100 µM |  |  |  |  |  |  |  |  |  | 
N#CC(C#N)=CNC(=S)c1ccncc1 | > 100 µM | 52.8 µM | > 100 µM | > 100 µM | > 100 µM | > 100 µM | > 100 µM | > 100 µM | 1.36 µM | > 100 µM |  |  |  |  |  |  |  |  |  | 
CSc1c(C#N)c(N)n2c1C(=O)N(c1ccccc1)C2=S | > 100 µM | > 100 µM | 69.7 µM | > 100 µM | > 100 µM | > 100 µM | > 100 µM | > 100 µM | > 100 µM | > 100 µM |  |  |  |  |  |  |  |  |  | 
N#CCCN(CCC#N)c1ccc(/C=C2\N=C(c3ccccc3)N(c3ccc(Cl)cc3)C2=O)cc1 | > 100 µM | > 100 µM | > 100 µM | > 100 µM | > 100 µM | > 100 µM | > 100 µM | > 100 µM | > 100 µM | > 100 µM |  |  |  |  |  |  |  |  |  | 
CCN(CCO)CC1COc2ccccc2O1 (stereo not given) | > 100 µM | > 100 µM | > 100 µM | > 100 µM | > 100 µM | > 100 µM | > 100 µM | > 100 µM | > 100 µM | > 100 µM |  |  |  |  |  |  |  |  |  | 

From PubChem BioAssay (NCI)
